# Assay results reported in patent US10004770B2, “Production and use of bacterial histamine” (BioGaia AB, priority 2011, dated 2018).
# Entries after “also recorded” stand apart in the source; their conditions may differ.
# Legend:
# ERK1/2 = ERK1/2 activation by Western blot; type: cell-based, human; conditions: activated THP-1 cells, compared to media control
# Protocol: (§1) THP-1 cells were lysed in ice-cold lysis buffer consisting of 50 mM Tris, pH 7.4, 250 mM NaCl, 5 mM EDTA, 50 mM NaF, 1 mM Na3VO4, 1% v/v Nonidet P40, 0.2% v/v NaN3, and protease and phosphatase inhibitors. Lysates were incubated on ice for 30 min, vortexed every 10 min, and cleared by centrifugation at 13,000×g for 10 min at 4° C. Protein concentrations were measured using the Quant-iT™ Protein Assay kit (Invitrogen) and a Qubit fluorometer according to the manufacturer's instructions. Equal amounts of proteins were loaded onto electrophoresis gels.
# (§2) Analysis of ERK1/2 activation was performed using specific phospho-ERK1/2 antibodies. Cell extracts were loaded on a 10% SDS-polyacrylamide gel and transferred to polyvinylidene difluoride membranes (Bio-Rad, Hercules, Calif.). Membranes were blocked overnight at 4° C. in blocking buffer (Li-Cor Biosciences, Lincoln, Nebr.). After several washes, membranes were probed with ERK1/2, phospho-ERK1/2 or β-Actin specific antibodies diluted in blocking buffer (Li-Cor) for 1 h at room temperature. After washes, membranes were incubated with the appropriate horseradish peroxidase-conjugated secondary antibody for 1 h at room temperature, and blots were then developed using a chemiluminescent detection. Analysis of MEK1/2 activation was performed as described above except primary antibody incubation was overnight at 4° C.
# [1] = tested on: TNF production from TLR2-activated THP-1 cells; test: TNF inhibition bioassay and TNF ELISA; type: cell-based, human; conditions: for block of TNF-inhibition by histamine: antagonist added before histamine 10^-5 M, ranitidine, cimetidine 10^-4-10^-6 M, indomethacin 10^-5-10^-6 M; for TNF production (TNF inhibition): THP-1 cells stimulated with 100 ng/mL Pam3Cys-SKKKK, 3.5 h, samples 5% v/v, histamine 10^-5 M, 6475 grown in glucose media (LDMIIIG)
# Protocol: In vitro experiments were performed with THP-1 cells (human monocytoid cell line, ATCC, Manassas, Va.) maintained in RPMI (ATCC) and heat-inactivated fetal bovine serum (Invitrogen, Carlsbad, Calif.) at 37° C., 5% CO2. MEK1/2, phospho-MEK1/2, ERK1/2, and phospho-ERK1/2 antibodies and MEK inhibitor U0126 were received from Cell Signaling Technology (Danvers, Mass.), and the β-Actin antibody was received from Abcam (Cambridge, Mass.). All other reagents were received from Sigma (St. Louis, Mo.) unless otherwise stated.
# Bacterial supernatants (10 mL) from a 24 h LDMIII culture were filter-sterilized using PVDF membrane filters (0.22 μm pore size, Millipore) and size fractionated as described above. One milliliter of the <3 kDa filtrate was speed vacuum dried and resuspended in RPMI media. These processed supernatant samples are termed conditioned media. All supernatants were normalized by volume to an OD600=1.0. Lyophilized fractions from the HILIC-HPLC separation were resuspended in 400 μL 10 mg/mL ammonium bicarbonate, speed vacuum dried, and resuspended in 400 μL RPMI media. Conditioned media and cell pellet wash fractions were tested for their ability to modulate TNF production in monocytoid cells. In brief, THP-1 cells (approximately 5×10^4 cells) were stimulated to produce TNF by the addition of 100 ng/mL Pam3Cys-SKKKK×3 HCl (EMC Microcollections, Tuebingen, Germany) as previously described. Inhibitors—H2 receptor antagonists, ranitidine and cimetidine (10^−4-10^−6 M), […], indomethacin (10^−5-10^−6 M), MEK inhibitor, U0126 (10 μM), and PKA inhibitor, H89 (N-[2-(p-bromocinnamylamino)ethyl]-5-isoquinolinesulfonamide dihydrochloride) (10^−5 M)—were added to the THP-1 cells followed by L. reuteri conditioned media or cell pellet wash fractions (5% v/v), histamine (10^−5 M), or dibutyryl cAMP (10^−3-10^−7 M). Plates were incubated at 37° C. and 5% CO2 for 3.5 h. THP-1 cells were pelleted (3000× g, 5 min, 4° C.), and quantitative ELISAs were used to determine TNF quantities in THP-1 cell supernatants according to the manufacturer's instructions (R&D Systems, Minneapolis, Minn.).
# MEK1/2 = MEK1/2 activation by Western blot; type: cell-based, human; conditions: activated THP-1 cells, compared to media control
# Protocol: as §1, §2
# patients with IBS = conditions: cited from earlier work
# [2] = tested on: intracellular cAMP in THP-1 cells (H2 receptor signaling); test: Intracellular cAMP in TLR2-stimulated THP-1 cells; type: cell-based, human; conditions: THP-1 cells stimulated with TLR2 agonist
# Protocol: The H2 receptor is a G protein linked receptor that can activate adenylate cyclase and increase intracellular cAMP. TNF can be inhibited at the level of transcription by cAMP and cAMP analogs. THP-1 cells were stimulated with a TLR2 agonist in the presence of a medium control, 6475 supernatant or histamine with or without an H2 receptor antagonist and intracellular levels of cAMP were measured. […] A synthetic analog of cAMP, dibutyryl cAMP (dcAMP), was added to TLR2-stimulated THP-1 cells and the effect on TNF production was monitored.
# TNFR1 [3] = conditions: cultured human endothelial cells; cited from earlier work
# LPS-induced liver injury = conditions: mouse; cited from earlier work
# [4] = tested on: LPS-stimulated human monocytes and macrophages; conditions: cited from earlier work
# [5] = tested on: peripheral blood mononuclear cells; conditions: cited from earlier work
# TNFR1 [6] = conditions: injection into human skin engrafted on immunodeficient mice; cited from earlier work
# H2 receptor = molecular target: T1, H2 receptor (Mus musculus, UniProt P97292); conditions: endotoxin shock (LPS challenge) and hepatitis (LPS plus galactosamine challenge); cited from earlier work
# T1 construct: host or cells: living mice (endogenous receptor)
# T1 sequence (P97292 whole entry): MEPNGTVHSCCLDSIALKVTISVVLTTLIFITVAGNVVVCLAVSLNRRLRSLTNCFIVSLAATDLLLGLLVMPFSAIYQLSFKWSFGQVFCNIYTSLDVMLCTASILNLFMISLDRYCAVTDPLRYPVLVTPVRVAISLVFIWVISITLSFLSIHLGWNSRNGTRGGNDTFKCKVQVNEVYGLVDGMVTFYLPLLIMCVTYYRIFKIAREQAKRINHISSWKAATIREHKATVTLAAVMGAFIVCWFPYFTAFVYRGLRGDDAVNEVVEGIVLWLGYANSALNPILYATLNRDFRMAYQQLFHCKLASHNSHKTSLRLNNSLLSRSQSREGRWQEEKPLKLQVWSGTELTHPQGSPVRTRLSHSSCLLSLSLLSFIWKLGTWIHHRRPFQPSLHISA
smiles,measurement,setting,value
N#CC(=C(/N)Sc1ccccc1N)/C(C#N)=C(\N)Sc1ccccc1N [U0126],phosphorylation (activation) of ERK1/2,ERK1/2,blocks phosphorylation; also recorded: suppressed activation of ERK1/2
same,TNF production,[1]; U0126 treatment for 30 min prior to TLR2 agonist stimulation,sufficient to prevent TNF production
same,phosphorylation (activation) of MEK1/2,MEK1/2,blocks phosphorylation; also recorded: suppressed activation of MEK1/2
COc1ccc2c(c1)c(CC(=O)O)c(C)n2C(=O)c1ccc(Cl)cc1 [indomethacin],block of TNF-inhibition by histamine,[1],no effect
"CCCC(=O)Nc1ncnc2c1ncn2[C@@H]1O[C@@H]2COP(=O)(O)O[C@H]2[C@H]1OC(=O)CCC [dcAMP, dibutyryl cAMP]",TNF production,[1]; dcAMP 10^-5-10^-3 M added to TLR2-stimulated THP-1 cells,sufficient to inhibit TNF production
CN1CCC(=C2c3ccccc3CC(=O)c3sccc32)CC1 [ketotifen],IBS symptoms,patients with IBS; patients with IBS,decreased IBS symptoms
same,pain threshold,patients with IBS; patients with IBS,increased pain threshold
same,number or activity of mast cells (histamine and tryptase release),patients with IBS; rectal biopsy tissue,no change
"Cl.Cl.O=S(=O)(NCCNCC=Cc1ccc(Br)cc1)c1cccc2cnccc12 [H89, N-[2-(p-bromocinnamylamino)ethyl]-5-isoquinolinesulfonamide dihydrochloride]",block of TNF inhibition by PKA inhibitor,"[1]; H89 10^-5 M in presence of 6475 supernatant, fraction B3, histamine or dcAMP",partially blocked TNF inhibition
NCCc1c[nH]cn1 [histamine],intracellular cAMP,[2],increase in cAMP; also recorded: increased intracellular cAMP
same,phosphorylation (activation) of ERK1/2,ERK1/2,blocks phosphorylation; also recorded: suppressed activation of ERK1/2
same,TNF production (TNF inhibition),[1],concentration dependent; also recorded: significantly inhibited TNF production
same,TNF production (TNF inhibition),[1]; listed as Histamine,significantly inhibit TNF production
same,"TNFR1 surface level, shedding and mobilization",TNFR1 [3],"transient loss of surface TNFR1, increased TNFR1 shedding, and mobilization of TNFR1 molecules from the Golgi"
same,phosphorylation (activation) of MEK1/2,MEK1/2,blocks phosphorylation; also recorded: suppressed activation of MEK1/2
same,protection in LPS-induced liver injury,LPS-induced liver injury,protective
same,"production of pro-inflammatory cytokines IL-1, IL-12 and TNF",[4]; LPS-stimulated human monocytes and macrophages,can inhibit production
same,production of anti-inflammatory cytokine IL-10,[4]; via the H2 receptor,can stimulate production
same,LPS-induced synthesis of TNF-α,[5],suppressed
same,TNFR1 shedding and TNF-mediated induction of endothelial adhesion molecules,TNFR1 [6],caused shedding of TNFR1 and diminished TNF-mediated induction of endothelial adhesion molecules
CN(C)CCCSC(=N)N [dimaprit],plasma TNF levels,H2 receptor,reduced plasma TNF levels
CN/C(=N/CCSCc1nc[nH]c1C)NC#N [cimetidine],block of TNF-inhibition by histamine,[1],could block TNF-inhibition by histamine in a concentration dependent manner
